Assay results reported in patent publication US7589080B2, “β-cyclodextrin compositions, and use to prevent transmission of sexually transmitted diseases” (priority 2000, dated 2009).
Marks after values point to notes of the source that are not given here.

Tests used:
HIV-1Ba-L-infected HuPBL = assay: Vaginal transmission of cell-associated HIV-1 in HuPBL-SCID mice; assay type: in vivo; settings: for Number of mice from which HIV-1 was cultured/Number of mice exposed to HIV-1: P < 0.01
Method: The mice were treated subcutaneously with 2.5 mg progestin (Depo-Provera® progestin; Upjohn Pharmaceuticals; Kalamazoo Mich.), on the same day as administration of 5×10^7 unstimulated HuPBMC intraperitoneally in 1 ml PBS. Seven days following progestin treatment and reconstitution of the SCID mice with HuPBMC, the mice were anesthetized and administered pelleted, cell-free HIV-1Ba-L (up to […]), supernatant fluids from HIV-1Ba-L-infected HuPBL, HIV-1Ba-L-infected HuPBL, or HIV-1MN-infected HuPBL (1×10^6/mouse). In the βCD experiments, the mice received 2-OH-βCD (3% w/v in PBS) 5 min prior to receiving 1×10^6 HIV-1Ba-L-infected HuPBL, 1×10^6 HIV-1Ba-L-infected HuPBL pre-incubated with 3% 2-OH-βCD, or 1×10^6 HIV-1Ba-L-infected HuPBL suspended in PBS.
Mice remained anesthetized for 5 minutes following intravaginal inoculation by pipette. Extreme care was taken to avoid causing trauma to vaginal tissues. Two weeks later the mice were euthanized and peritoneal cells were recovered by lavage with cold PBS. The cells recovered by lavage (of both murine and human origin) were assayed by DNA-PCR for human β-globin to determine the presence of human cells from the peritoneum and for HIV-1 infection by co-culture with PHA-stimulated HuPBMC.
The ability of a βCD to inhibit vaginal transmission of cell-associated HIV-1 was examined. Reconstituted HuPBL-SCID mice were challenged intravaginally with 1×10^6 PBMC infected with HIVBa-L after receiving progesterone subcutaneously and HuPBMC intraperitoneally. For two of the experimental groups the HIV-1 infected PBMC were pre-incubated in either 20 Tl PBS or 2-OH-βCD (3% w/v) before the mixture was inoculated intravaginally.

HIV-infected H9 cells = assay: Syncytium assay with HIV-1 infected cells; assay type: cell-based; settings: for Syncytia (/HPF): with HIV-infected H9 cells
Method: Syncytium assays were carried out essentially as previously described (Hildreth and Orentas, supra, 1989). Briefly, cell lines or PHA blasts were treated with 20 mM 2-OH-βCD in RPMI 1640 or medium alone for 1 hr at 37° C. before washing twice with PBS. The treated cells were then mixed with HIV-1 infected cells, each at density of 2×10^6/ml, in cRPMI and incubated at 37° C. Syncytia were scored and photographed 3 to 6 hr after mixing. For free-virus mediated syncytium assays (“fusion from without”), HIV-1RF from infected PM1 culture supernatants were clarified by 0.45 Tm filtration (p24 concentration greater than 500 ng/ml). 2-OH-βCD-treated and non-treated cell lines were added to the virus preparations and incubated at 37° C. for 3 hr before counting syncytia.
CD4+SupTl T cells formed numerous large syncytia within 3 hr after the addition of HIV-1MN-infected H9 cells. […] No syncytia were apparent in this culture for more than 15 hr, which can reflect the recovery time for cholesterol in the βCD treated T cells. 2-OH-βCD was washed out after the 1 hr treatment and was not present during the co-cultivation step. As such, the effects are not a result of a steric blockade by 2-OH-βCD, which can bind to cells.
The effect of βCD treatment on HIV-induced fusion of several other cell lines also was examined. Four CD4+, CXCR4+cell lines, SupT1, H9, PM1, and MT2, were treated with 2-OH-βCD and tested for syncytium formation with HIV-1-infected cells.

[1] = test system: HIV-1 primary strain 97.534, dual-tropic (X4R5); assay: Primary virus infection assay, isolate 97.534; assay type: cell-based; settings: PHA blasts treated with 10 mM; p24 after 6 days
Method: Peripheral blood mononuclear cells (PBMCS) were isolated by Ficoll-Hypaque centrifugation from buffy coats obtained from the Johns Hopkins Hemapheresis Center. Cells were stimulated for 3 days with 3 Tg/ml PHA, washed with iRPMI, and treated with 10 mM 2-OH-βCD in cRPMI for 1 hr. Cells were then washed twice with iRPMI and resuspended in cRPMI (1×10^6/ml) supplemented with 50 U/ml IL-2 and containing primary HIV-1 strains at 20 ng/ml p24. Cells were incubated with virus for 24 hr at 37° C. before washing twice with iRPMI. Cells were then resuspended in cRPMI supplemented with 50 U/ml IL-2 and cultured for 6 days at 37° C. Supernatants were collected and p24 was quantitated by standard p24 ELISA.
βCD treatment blocks HIV-1 virus infection. HIV-1 can spread in cell cultures without necessarily exerting cytopathic effects. […] To test the effects of cholesterol depletion on HIV-1 infection of primary T cells by free virus, PHA blasts were treated with 10 mM 2-OH-βCD or medium alone, then were exposed to HIV-1 for 2 hr before washing to remove input virus. Viability and growth of the PHA blasts was not affected by treatment with the βCD under the conditions used. P24 release was measured after an addition 6 days in culture. Two primary strains of HIV-1, 97.099 and 97.534, M-tropic (R5) and dual-tropic (X4R5), respectively, were tested.

Substance: 2-hydroxypropyl-β-cyclodextrin [2-OH-βCD]
- Number of mice from which HIV-1 was cultured/Number of mice exposed to HIV-1 (HIV-1Ba-L-infected HuPBL; 3% w/v intravaginally 5 min prior to infected HuPBMC challenge): 1/11*
- Number of mice from which HIV-1 was cultured/Number of mice exposed to HIV-1 (HIV-1Ba-L-infected HuPBL; 3% w/v premixed with HIV-infected HuPBMC, intravaginal): 2/16*
- Cell-associated HIV-1 transmission by the vaginal route (HIV-1Ba-L-infected HuPBL; 3% w/v, even when administered prior to infected PBMC): significantly inhibited
- Syncytium formation of SupT1 cells with HIV-1MN-infected H9 cells (HIV-infected H9 cells; 1 hr treatment, washed out before co-cultivation): completely inhibited
- Syncytia (/HPF) (HIV-infected H9 cells; H9 cells treated with 20 mM): 0 /HPF
- Syncytia (/HPF) (HIV-infected H9 cells; MT2 cells treated with 20 mM): 0 /HPF
- Syncytia (/HPF) (HIV-infected H9 cells; PM1 cells treated with 20 mM): 0 /HPF
- Syncytium formation with HIV-1-infected cells (HIV-infected H9 cells; SupT1, H9, PM1 and MT2 cell lines, in each case): completely blocked
- Syncytia (/HPF) (HIV-infected H9 cells; SupT1 cells treated with 20 mM): 0 /HPF
- Time without apparent syncytia (HIV-infected H9 cells; treated SupT1 cells with HIV-1MN-infected H9 cells): more than 15 hr
- Inhibition of infection of PHA blasts by isolate 97.534 (p24 release) [1]: more than 70%
